Results: US20110165195A1 (priority 2007, published 2011)

Key:
Caco-2 cell line = conditions: cited from earlier work
[1] = tested on: rat intestinal tract tissue; conditions: in vivo; cited from earlier work
in vivo [2] = conditions: male, SD, rat, sc, 10 ug/kg
in vivo [3] = conditions: male, rat
in vivo [4] = conditions: male, SD, rat
in vivo [5] = conditions: male, SD, rat; remark: listed apart in the source
in vivo [6] = conditions: male, SD, rat, iv, 10 ug/kg
in vivo [7] = conditions: male, SD, rat, iv, 10 ug/kg; remark: listed apart in the source
in vivo [8] = conditions: male, SD, rat; remark: listed apart in the source
[9] = rat, in vivo

In the case of `CCCCCCCCCC(=O)O` [capric acid], the “cytotoxicity and tissue damage” value (Caco-2 cell line) is listed as “exhibits cytotoxicity and causes tissue damage” and the “cytotoxicity and tissue damage” value [1] is listed as “exhibits cytotoxicity and causes tissue damage”.

`CC[C@H](C)[C@H](NC(=O)[C@H](CCC(=O)O)NC(=O)[C@H](CO)NC(=O)[C@@H](NC(=O)[C@@H](N)CO)C(C)C)C(=O)N[C@@H](CCC(N)=O)C(=O)N[C@@H](CC(C)C)C(=O)N[C@@H](CCSC)C(=O)N[C@@H](Cc1cnc[nH]1)C(=O)N[C@@H](CC(N)=O)C(=O)N[C@@H](CC(C)C)C(=O)NCC(=O)N[C@@H](CCCCN)C(=O)N[C@@H](Cc1cnc[nH]1)C(=O)N[C@@H](CC(C)C)C(=O)N[C@@H](CC(N)=O)C(=O)N[C@@H](CO)C(=O)N[C@@H](CCSC)C(=O)N[C@@H](CCC(=O)O)C(=O)N[C@@H](CCCN=C(N)N)C(=O)N[C@H](C(=O)N[C@@H](CCC(=O)O)C(=O)N[C@@H](Cc1c[nH]c2ccccc12)C(=O)N[C@@H](CC(C)C)C(=O)N[C@@H](CCCN=C(N)N)C(=O)N[C@@H](CCCCN)C(=O)N[C@@H](CCCCN)C(=O)N[C@@H](CC(C)C)C(=O)N[C@@H](CCC(N)=O)C(=O)N[C@@H](CC(=O)O)C(=O)N[C@H](C(=O)N[C@@H](Cc1cnc[nH]1)C(=O)N[C@@H](CC(N)=O)C(=O)N[C@@H](Cc1ccccc1)C(=O)O)C(C)C)C(C)C` [hPTH(1-34)] gave an AUC (in vivo [2]) of 0.827 ng·h/mL, a Cmax (in vivo [2]) of 1.07 ± 0.41 ng/mL and a bioavailability (in vivo [3]; Wistar, iv) of 0.4 ± 0.4%. It also gave an AUC (in vivo [3]; Wister) of 0.538 ng·h/mL, a Cmax (in vivo [3]; Wister) of 0.93 ± 0.8 ng/mL and a bioavailability (in vivo [4]) of 0.3 ± 0.1%. The AUC (in vivo [4]; inhaled or intranasal) was 0.732 ng·h/mL, the Cmax (in vivo [4]; inhaled or intranasal) was 0.67 ± 0.16 ng/mL and the AUC (in vivo [5]) was 25.6 ng·h/mL. It also gave a Cmax (in vivo [5]) of 27.8 ± 15.9 ng/mL, a bioavailability (in vivo [5]; iv) of 14.6 ± 10.7% and an AUC (in vivo [6]) of 3.48 ng·h/mL. For the same compound, the Cmax (in vivo [6]) was 31 ± 1.3 ng/mL.

For `CCCCCCCC(=O)OC[C@H](NC(=O)[C@H](CO)NC(=O)CN)C(=O)N[C@@H](Cc1ccccc1)C(=O)N[C@@H](CC(C)C)C(=O)N[C@@H](CO)C(=O)N1CCC[C@H]1C(=O)N[C@@H](CCC(=O)O)C(=O)N[C@@H](Cc1cnc[nH]1)C(=O)N[C@@H](CCC(N)=O)C(=O)N[C@@H](CCCNC(=N)N)C(=O)N[C@H](C(=O)N[C@@H](CCC(N)=O)C(=O)N[C@@H](CCC(N)=O)C(=O)N[C@@H](CCCNC(=N)N)C(=O)N[C@@H](CCCCN)C(=O)N[C@@H](CCC(=O)O)C(=O)N[C@@H](CO)C(=O)N[C@@H](CCCCN)C(=O)N[C@@H](CCCCN)C(=O)N1CCC[C@H]1C(=O)N1CCC[C@H]1C(=O)N[C@@H](C)C(=O)N[C@@H](CCCCN)C(=O)N[C@@H](CC(C)C)C(=O)N[C@@H](CCC(N)=O)C(=O)N1CCC[C@H]1C(=O)N[C@@H](CCCNC(=N)N)C(=O)O)C(C)C` [human ghrelin], the AUC (in vivo [7]) was 3.43 ng·h/mL, the C0 (in vivo [7]) was 40.7 ng/mL and the AUC (in vivo [8]) was 0.533 ng·h/mL. It also gave a Cmax (in vivo [8]) of 2.25 ± 2 ng/mL and a bioavailability (in vivo [8]) of 1.6 ± 1.4%.

In the case of `CC[C@H](C)[C@H](NC(=O)[C@@H]1CCCN1C(=O)[C@@H](NC(=O)[C@@H](N)Cc1ccccc1)C(C)C)C(=O)N[C@@H](Cc1ccccc1)C(=O)N[C@H](C(=O)N[C@@H](Cc1ccc(O)cc1)C(=O)NCC(=O)N[C@@H](CCC(=O)O)C(=O)N[C@@H](CC(C)C)C(=O)N[C@@H](CCC(N)=O)C(=O)N[C@@H](CCCNC(=N)N)C(=O)N[C@@H](CCSC)C(=O)N[C@@H](CCC(N)=O)C(=O)N[C@@H](CCC(=O)O)C(=O)N[C@@H](CCCCN)C(=O)N[C@@H](CCC(=O)O)C(=O)N[C@@H](CCCNC(=N)N)C(=O)N[C@@H](CC(N)=O)C(=O)N[C@@H](CCCCN)C(=O)NCC(=O)N[C@@H](CCC(N)=O)C(=O)O)[C@@H](C)O` [human motilin], the “BA of human motilin” value [9] is reported as 1.1 ± 0.7%.
